In paper PMC7377239, “Cardiovascular Effects of Polychlorinated Biphenyls and Their Major Metabolites” (Environmental Health Perspectives, 2020):
Read-outs that look alike come from different tables or passages of the source.

Columns and labels:
[1] = tested on: iCell endothelial cells (human iPSC-derived ECs); assay: High-content imaging cytotoxicity in iCell endothelial cells, 24 h; type: cell-based; details: Homo sapiens, Endothelial cell, endothelial cells (endo), 24 hr
Summary of the method: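 Readouts were vehicle-normalised and fitted to a four-parameter logistic model. POD was set at one SD beyond 0.5% DMSO control means, and 100 µM was assigned when no response was seen. Cells were monolayers of iCell endothelial cells imaged after 24 h compound exposure using nuclear, mitochondrial and calcein dyes.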

[2] = tested on: iPSC-CMs, iPSC-ECs and HUVECs phenotypes; assay: ToxPi 2.0 integration of POD values and physicochemical descriptors; parameters: species or system human; details: ToxPi-scaled (0-1) score; for huvec.cyto.24hr / huvec.mito.24hr / huvec.mitoint.24hr / huvec.nma.24hr / huvec.tc.24hr / huvec.mtl.18hr / huvec.tlps.18hr / huvec.tta.18hr / huvec.ttl.18hr: HUVECs; for huvec.mtl.18hr / huvec.tlps.18hr / huvec.tta.18hr / huvec.ttl.18hr / endo.mtl.18hr / endo.tlps.18hr / endo.tta.18hr / endo.ttl.18hr: tube formation; for cm.amp.avg.90min / cm.amp.cv.90min / cm.bpm.90min / cm.cam.90min / cm.decay.rise.90min / cm.mii.90min / cm.mito.90min / cm.spacing.cv.90min / cm.tc.90min / cm.amp.avg.24hrs / cm.amp.cv.24hrs / cm.bpm.24hrs / cm.cam.24hrs / cm.decay.rise.24hrs / cm.mii.24hrs / cm.mito.24hrs / cm.spacing.cv.24hrs / cm.tc.24hrs: iPSC cardiomyocytes; for endo.cyto.24hr / endo.mito.24hr / endo.mitoint.24hr / endo.nma.24hr / endo.tc.24hr / endo.mtl.18hr / endo.tlps.18hr / endo.tta.18hr / endo.ttl.18hr: iPSC endothelial cells
Summary of the method: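 Phenotypic readouts in iPSC-cardiomyocytes, iPSC-endothelial cells and HUVECs were normalised to 0.5% DMSO vehicle and fitted to a four-parameter logistic model. POD set at one SD cutoff of vehicle means, with 100 μM assigned when no response. PODs and physicochemical descriptors combined in ToxPi 2.0 scores.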

[3] = cyto, read-out: POD endo.cyto.24hr
[4] = mito, read-out: POD endo.mito.24hr
[5] = mitoint, read-out: POD endo.mitoint.24hr
[6] = nma, read-out: POD endo.nma.24hr

Clc1ccc(-c2cc(Cl)c(Cl)c(Cl)c2)cc1Cl [PCB 126, 3,3′,4,4′,5-pentachlorobiphenyl]
minimal effective concentration [1, 3]: 0.33 µM | minimal effective concentration [1, 4]: 0.33 µM | minimal effective concentration [1, 5]: 10.2 µM | minimal effective concentration [1, 6]: 100 µM | minimal effective concentration ([1]; tc, read-out: POD endo.tc.24hr): 0.34 µM | huvec.cyto.24hr [2]: 0.3035 | huvec.mito.24hr [2]: 0 | huvec.mitoint.24hr [2]: 0 | huvec.nma.24hr [2]: 0 | huvec.tc.24hr [2]: 0.3035 | huvec.mtl.18hr [2]: 0 | huvec.tlps.18hr [2]: 0 | huvec.tta.18hr [2]: 0 | huvec.ttl.18hr [2]: 0 | cm.amp.avg.90min [2]: 0.3003 | cm.amp.cv.90min [2]: 0 | cm.bpm.90min [2]: 0.8534 | cm.cam.90min [2]: 0 | cm.decay.rise.90min [2]: 1 | cm.mii.90min [2]: 0 | cm.mito.90min [2]: 0 | cm.spacing.cv.90min [2]: 0 | cm.tc.90min [2]: 0 | cm.amp.avg.24hrs [2]: 0.3868 | cm.amp.cv.24hrs [2]: 0.06292 | cm.bpm.24hrs [2]: 0.6773 | cm.cam.24hrs [2]: 0.3565 | cm.decay.rise.24hrs [2]: 1 | cm.mii.24hrs [2]: 0 | cm.mito.24hrs [2]: 0.557 | cm.spacing.cv.24hrs [2]: 0.3424 | cm.tc.24hrs [2]: 0.6297 | endo.cyto.24hr [2]: 1 | endo.mito.24hr [2]: 1 | endo.mitoint.24hr [2]: 0.315 | endo.nma.24hr [2]: 0 | endo.tc.24hr [2]: 1 | endo.mtl.18hr [2]: 0.1325 | endo.tlps.18hr [2]: 0.4903 | endo.tta.18hr [2]: 0.1238 | endo.ttl.18hr [2]: 0.0871

Clc1cc(Cl)c(-c2cc(Cl)c(Cl)cc2Cl)cc1Cl [PCB 153, 2,2′,4,4′,5,5′-hexachlorobiphenyl]
minimal effective concentration [1, 3]: 18.6 µM | minimal effective concentration [1, 4]: 18.6 µM | minimal effective concentration [1, 5]: 0.07 µM | minimal effective concentration [1, 6]: 62.5 µM | minimal effective concentration ([1]; tc, read-out: POD endo.tc.24hr): 49.2 µM | huvec.cyto.24hr [2]: 0.8978 | huvec.mito.24hr [2]: 0.5815 | huvec.mitoint.24hr [2]: 0.9487 | huvec.nma.24hr [2]: 0.5857 | huvec.tc.24hr [2]: 0.8978 | huvec.mtl.18hr [2]: 0.3619 | huvec.tlps.18hr [2]: 0.09107 | huvec.tta.18hr [2]: 0.4811 | huvec.ttl.18hr [2]: 1 | cm.amp.avg.90min [2]: 0.6441 | cm.amp.cv.90min [2]: 0.2203 | cm.bpm.90min [2]: 0.7602 | cm.cam.90min [2]: 0.6527 | cm.decay.rise.90min [2]: 0.5479 | cm.mii.90min [2]: 0 | cm.mito.90min [2]: 0.6603 | cm.spacing.cv.90min [2]: 0.07557 | cm.tc.90min [2]: 0.6003 | cm.amp.avg.24hrs [2]: 0 | cm.amp.cv.24hrs [2]: 0.175 | cm.bpm.24hrs [2]: 0.4569 | cm.cam.24hrs [2]: 0.2888 | cm.decay.rise.24hrs [2]: 0.5277 | cm.mii.24hrs [2]: 0.2429 | cm.mito.24hrs [2]: 0.486 | cm.spacing.cv.24hrs [2]: 0.2007 | cm.tc.24hrs [2]: 0.5053 | endo.cyto.24hr [2]: 0.2934 | endo.mito.24hr [2]: 0.2934 | endo.mitoint.24hr [2]: 1 | endo.nma.24hr [2]: 0.08276 | endo.tc.24hr [2]: 0.1249 | endo.mtl.18hr [2]: 1 | endo.tlps.18hr [2]: 0.6326 | endo.tta.18hr [2]: 0.297 | endo.ttl.18hr [2]: 0.4748
